Laboratory results published in the supplement of paper PMC10307832.

Key:
Assay in all cases: relative viability (nuclei count vs DMSO), 5 days (fraction); higher = more cells survive
[1] = compound: CC1(COc2ccc3c(c2)ncn3-c2ccc3cccc(N4CCC(N)CC4)c3n2)COC1 [Crenolanib] + CS(=O)(=O)N1CCN(Cc2cc3nc(-c4cccc5[nH]ncc45)nc(N4CCOCC4)c3s2)CC1 [Pictilisib] (partner 1 µM)
In short: (§1)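 After 5 days of treatment, lung cancer cells in 1536-well plates were fixed and stained in a single step (final 0.05% Triton X-100, 1% formaldehyde, 1 ug/ml Hoechst) and their nuclei counted on 4× images. Treatment had been applied by pin tool the day after seeding as one drug alone or as a fixed anchor-drug dose with five library-drug doses (not always all listed) in √10 steps. Relative viability is the nuclei count of treated wells divided by that of vehicle wells, and values are medians of duplicate plates.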

[2] = compound: O=C1NC(=O)[C@@H](c2cn3c4c(cccc24)CCC3)[C@@H]1c1c[nH]c2ccccc12 [Tivantinib] + CS(=O)(=O)CCNCc1ccc(-c2ccc3ncnc(Nc4ccc(OCc5cccc(F)c5)c(Cl)c4)c3c2)o1 [Lapatinib] (partner 2 µM)
In short: as §1

[3] = compound: CC1(COc2ccc3c(c2)ncn3-c2ccc3cccc(N4CCC(N)CC4)c3n2)COC1 [Crenolanib] + CS(=O)(=O)CCNCc1ccc(-c2ccc3ncnc(Nc4ccc(OCc5cccc(F)c5)c(Cl)c4)c3c2)o1 [Lapatinib] (partner 2 µM)
In short: as §1

[4] = compound: O=C1NC(=O)[C@@H](c2cn3c4c(cccc24)CCC3)[C@@H]1c1c[nH]c2ccccc12 [Tivantinib] + Cc1nc(NC(=O)N2CCC[C@H]2C(N)=O)sc1-c1ccnc(C(C)(C)C(F)(F)F)c1 [Alpelisib] (partner 2 µM)
In short: as §1

NCI-H661
relative viability ([1]; first compound 0.01 µM): 0.476
relative viability ([1]; first compound 0.03162 µM): 0.336
relative viability ([1]; first compound 0.1 µM): 0.368
relative viability ([1]; first compound 0.3162 µM): 0.378
relative viability ([1]; first compound 1 µM): 0.414
relative viability ([2]; first compound 0.01 µM): 0.579
relative viability ([2]; first compound 0.03162 µM): 0.46
relative viability ([2]; first compound 0.1 µM): 0.474
relative viability ([3]; first compound 0.01 µM): 0.493
relative viability ([3]; first compound 0.03162 µM): 0.547
relative viability ([3]; first compound 0.1 µM): 0.47
relative viability ([3]; first compound 0.3162 µM): 0.451
relative viability ([3]; first compound 1 µM): 0.468
relative viability ([4]; first compound 0.01 µM): 0.404
relative viability ([4]; first compound 0.03162 µM): 0.86
relative viability ([4]; first compound 0.1 µM): 0.72

NCI-H727
relative viability ([1]; first compound 0.01 µM): 0.491
relative viability ([1]; first compound 0.03162 µM): 0.634
relative viability ([1]; first compound 0.1 µM): 0.342
relative viability ([1]; first compound 0.3162 µM): 0.473
relative viability ([1]; first compound 1 µM): 0.418
relative viability ([2]; first compound 0.01 µM): 0.824
relative viability ([2]; first compound 0.03162 µM): 0.689
relative viability ([2]; first compound 0.1 µM): 0.802
relative viability ([3]; first compound 0.01 µM): 0.936
relative viability ([3]; first compound 0.03162 µM): 0.662
relative viability ([3]; first compound 0.1 µM): 0.752
relative viability ([3]; first compound 0.3162 µM): 0.856
relative viability ([3]; first compound 1 µM): 0.686
relative viability ([4]; first compound 0.01 µM): 0.537
relative viability ([4]; first compound 0.03162 µM): 0.526
relative viability ([4]; first compound 0.1 µM): 0.505

NCI-H1793
relative viability ([1]; first compound 0.01 µM): 0.302
relative viability ([1]; first compound 0.03162 µM): 0.315
relative viability ([1]; first compound 0.1 µM): 0.322
relative viability ([1]; first compound 0.3162 µM): 0.312
relative viability ([1]; first compound 1 µM): 0.385
relative viability ([2]; first compound 0.01 µM): 0.836
relative viability ([2]; first compound 0.03162 µM): 0.735
relative viability ([2]; first compound 0.1 µM): 0.651
relative viability ([3]; first compound 0.01 µM): 0.767
relative viability ([3]; first compound 0.03162 µM): 0.799
relative viability ([3]; first compound 0.1 µM): 0.475
relative viability ([3]; first compound 0.3162 µM): 0.855
relative viability ([3]; first compound 1 µM): 0.645
relative viability ([4]; first compound 0.01 µM): 0.678
relative viability ([4]; first compound 0.03162 µM): 0.858
relative viability ([4]; first compound 0.1 µM): 0.703

NCI-H1755
relative viability ([1]; first compound 0.01 µM): 0.423
relative viability ([1]; first compound 0.03162 µM): 0.408
relative viability ([1]; first compound 0.1 µM): 0.397
relative viability ([1]; first compound 0.3162 µM): 0.399
relative viability ([1]; first compound 1 µM): 0.393
relative viability ([2]; first compound 0.01 µM): 1.07
relative viability ([2]; first compound 0.03162 µM): 1.02
relative viability ([2]; first compound 0.1 µM): 0.983
relative viability ([2]; first compound 0.3162 µM): 1.15
relative viability ([3]; first compound 0.01 µM): 1.02
relative viability ([3]; first compound 0.03162 µM): 1.08
relative viability ([3]; first compound 0.1 µM): 0.987
relative viability ([3]; first compound 0.3162 µM): 1.12
relative viability ([3]; first compound 1 µM): 0.967
relative viability ([4]; first compound 0.01 µM): 0.918
relative viability ([4]; first compound 0.03162 µM): 0.936
relative viability ([4]; first compound 0.1 µM): 0.886
relative viability ([4]; first compound 0.3162 µM): 0.902

NCI-H1299
relative viability ([1]; first compound 0.01 µM): 0.793
relative viability ([1]; first compound 0.03162 µM): 0.825
relative viability ([1]; first compound 0.1 µM): 0.657
relative viability ([1]; first compound 0.3162 µM): 0.878
relative viability ([1]; first compound 1 µM): 0.795
relative viability ([2]; first compound 0.01 µM): 0.967
relative viability ([2]; first compound 0.03162 µM): 0.952
relative viability ([2]; first compound 0.1 µM): 0.988
relative viability ([2]; first compound 0.3162 µM): 0.924
relative viability ([3]; first compound 0.01 µM): 0.928
relative viability ([3]; first compound 0.03162 µM): 1.01
relative viability ([3]; first compound 0.1 µM): 0.905
relative viability ([3]; first compound 0.3162 µM): 0.862
relative viability ([3]; first compound 1 µM): 0.887
relative viability ([4]; first compound 0.01 µM): 1.09
relative viability ([4]; first compound 0.03162 µM): 1.01
relative viability ([4]; first compound 0.1 µM): 1.01
relative viability ([4]; first compound 0.3162 µM): 1.02

HARA
relative viability ([1]; first compound 0.01 µM): 0.327
relative viability ([1]; first compound 0.03162 µM): 0.369
relative viability ([1]; first compound 0.1 µM): 0.283
relative viability ([1]; first compound 0.3162 µM): 0.289
relative viability ([1]; first compound 1 µM): 0.353
relative viability ([2]; first compound 0.01 µM): 0.888
relative viability ([2]; first compound 0.03162 µM): 0.651
relative viability ([2]; first compound 0.1 µM): 0.636
relative viability ([2]; first compound 0.3162 µM): 0.82
relative viability ([3]; first compound 0.01 µM): 0.711
relative viability ([3]; first compound 0.03162 µM): 0.81
relative viability ([3]; first compound 0.1 µM): 0.645
relative viability ([3]; first compound 0.3162 µM): 0.602
relative viability ([3]; first compound 1 µM): 0.684
relative viability ([4]; first compound 0.01 µM): 0.962
relative viability ([4]; first compound 0.03162 µM): 0.737
relative viability ([4]; first compound 0.1 µM): 0.827
relative viability ([4]; first compound 0.3162 µM): 0.431

201T
relative viability ([1]; first compound 0.01 µM): 0.724
relative viability ([1]; first compound 0.03162 µM): 0.704
relative viability ([1]; first compound 0.1 µM): 0.695
relative viability ([1]; first compound 0.3162 µM): 0.689
relative viability ([1]; first compound 1 µM): 0.634
relative viability ([2]; first compound 0.01 µM): 1.08
relative viability ([2]; first compound 0.03162 µM): 1.01
relative viability ([2]; first compound 0.1 µM): 1.04
relative viability ([2]; first compound 0.3162 µM): 1.14
relative viability ([3]; first compound 0.01 µM): 1
relative viability ([3]; first compound 0.03162 µM): 1.02
relative viability ([3]; first compound 0.1 µM): 1.03
relative viability ([3]; first compound 0.3162 µM): 0.965
relative viability ([3]; first compound 1 µM): 1.01
relative viability ([4]; first compound 0.01 µM): 0.982
relative viability ([4]; first compound 0.03162 µM): 1
relative viability ([4]; first compound 0.1 µM): 0.999
relative viability ([4]; first compound 0.3162 µM): 0.981
